Test results taken from US20090048112A1, “Novel Herbicides” (SYNGENTA LIMITED, priority 2005, published 2009).

Experiments:
Format in all cases: in vivo
[1] = test system: Stellaria media (chickweed); experiment: Example B2: herbicidal action post emergence, 500 g/ha; settings: applied to the foliage, 13 days after application, 0 is no damage to plants, 100 is plants completely dead
Protocol: (§1) Monocotyledonous and dicotyledonous test plants were sown in seed trays in standard compost and were grown for eight days. The trays were watered twice daily or as required. The chemicals were applied by track sprayer to the foliage. The application was carried out with an aqueous suspension of the test substances, prepared as a formulation of 50% acetone in water with 0.5% Tween 20™ (CAS RN 9005-64-5), to achieve a field equivalent of 1000 l/ha. The application rate of the test substances was 500 g/ha. A visual assessment of the herbicidal effect was made at 13 days after application. The following percentage scale was used for assessment: 0, 5, 10, 20, 30, 40, 50, 60, 70, 80, 90, 95, 100 (where O is no damage to plants and 100 is plants are completely dead).

[2] = test system: Amaranthus retroflexus (redroot pigweed); experiment: as above; settings: applied to the foliage, 13 days after application, 0 is no damage to plants, 100 is plants completely dead
Protocol: as §1

[3] = test system: Echinochloa crus-galli (barnyard grass); experiment: as above; settings: applied to the foliage, 13 days after application, 0 is no damage to plants, 100 is plants completely dead
Protocol: as §1

[4] = test system: Alopecurus myosuroides (slender foxtail); experiment: as above; settings: applied to the foliage, 13 days after application, 0 is no damage to plants, 100 is plants completely dead
Protocol: as §1

[5] = test system: Monocotyledonous and dicotyledonous test plants; experiment: Example B1: herbicidal action prior to emergence (pre-emergence), 500 g/ha; settings: 13 days after application, 0 = no damage, 100 = plants completely dead; for ALOMY herbicidal effect (visual assessment, percentage scale): Alopecurus myosuroides (slender foxtail); for AMARE herbicidal effect (visual assessment, percentage scale): Amaranthus retroflexus (redroot pigweed); for ECHCG herbicidal effect (visual assessment, percentage scale): Echinochloa crus-galli (barnyard grass); for STEME herbicidal effect (visual assessment, percentage scale): Stellaria media (chickweed)
Protocol: as §1, with “standard compost.” for “standard compost and were grown for eight days.”, “sprayer at” for “sprayer to”, “the soil surface.” for “the foliage.”, “(where 0” for “(where O”

[6] = test system: Monocotyledonous and dicotyledonous test plants; experiment: Example B3: herbicidal action prior to emergence (pre-emergence), 96-cell seed trays, 1000 g/ha; set-up: key: 0 is no damage to plant; 5 is total damage to plant; settings: 9 days after application; for AGSTE herbicidal effect (visual assessment, scale 0-5): Agrostis tenius (Colonial bentgrass); for AMARE herbicidal effect (visual assessment, scale 0-5): Amaranthus retroflexus (redroot pigweed); for DIGSA herbicidal effect (visual assessment, scale 0-5): Digitaria sanguinalis (hairy finger-grass); for POATR herbicidal effect (visual assessment, scale 0-5): Poa trivialis (rough blue grass); for SETIT herbicidal effect (visual assessment, scale 0-5): Setaria italica (foxtail millet)
Protocol: Monocotyledonous and dicotyledonous test plants were sown in sterilised standard soil in seed trays each with 96 cells. The seed trays were stored under controlled conditions in a climatic chamber for one day (cultivation at 23° C. during the day and 17° C. at night; 13 hours of light; 50-60% humidity). The chemicals were applied to the soil surface. The application was carried out with an aqueous suspension of the test substances, prepared as a formulation in water with 10% dimethyl sulfoxide (CAS RN 67-68-5), to achieve a field equivalent of 1000 l/ha. The application rate of the test substances was 1000 g/ha. The plants were grown on in the climatic chamber for 9 days (cultivation at 24° C. during the day and 19° C. at night; 13 hours of light; 50-60% humidity). A visual assessment of the herbicidal effect was made at 9 days after application. The following scale was used for assessment: 0, 1, 2, 3, 4 and 5 (where 0 is no damage to plant and 5 is total damage to plant).

Compound: CCOc1c(C[S+]([O-])c2ncc(Br)s2)c(C(F)(F)F)nn1C (racemic) [1.022]
- STEME, visual assessment of the herbicidal effect [1]: 80%
- AMARE, visual assessment of the herbicidal effect [2]: 70%
- ECHCG, visual assessment of the herbicidal effect [3]: 80%
- ALOMY, visual assessment of the herbicidal effect [4]: 60%
- ALOMY herbicidal effect (visual assessment, percentage scale) [5]: 95%
- AMARE herbicidal effect (visual assessment, percentage scale) [5]: 100%
- ECHCG herbicidal effect (visual assessment, percentage scale) [5]: 95%
- STEME herbicidal effect (visual assessment, percentage scale) [5]: 90%

Compound: Cn1nc(C(F)(F)F)c(C[S+]([O-])c2ncc(Cl)s2)c1Cl (racemic) [1.017]
- STEME, visual assessment of the herbicidal effect [1]: 70%
- AMARE, visual assessment of the herbicidal effect [2]: 70%
- ECHCG, visual assessment of the herbicidal effect [3]: 60%
- ALOMY, visual assessment of the herbicidal effect [4]: 70%
- ALOMY herbicidal effect (visual assessment, percentage scale) [5]: 95%
- AMARE herbicidal effect (visual assessment, percentage scale) [5]: 95%
- ECHCG herbicidal effect (visual assessment, percentage scale) [5]: 95%
- STEME herbicidal effect (visual assessment, percentage scale) [5]: 95%

Compound: Cn1nc(C(F)(F)F)c(C[S+]([O-])c2ncc(Br)s2)c1OCC(F)(F)F (stereo not shown) [Compound No. 1.002, 5-bromo-2-[1-methyl-5-(2,2,2-trifluoroethoxy)-3-trifluoromethyl-1H-pyrazol-4-ylmethanesulfinyl]-thiazole]
- STEME, visual assessment of the herbicidal effect [1]: 90%
- AMARE, visual assessment of the herbicidal effect [2]: 95%
- ECHCG, visual assessment of the herbicidal effect [3]: 95%
- ALOMY, visual assessment of the herbicidal effect [4]: 95%
- ALOMY herbicidal effect (visual assessment, percentage scale) [5]: 95%
- AMARE herbicidal effect (visual assessment, percentage scale) [5]: 100%
- ECHCG herbicidal effect (visual assessment, percentage scale) [5]: 95%
- STEME herbicidal effect (visual assessment, percentage scale) [5]: 100%

Compound: Cn1nc(C(F)(F)F)c(C[S+]([O-])c2ncc(Br)s2)c1Cl (racemic) [1.005]
- STEME, visual assessment of the herbicidal effect [1]: 70%
- AMARE, visual assessment of the herbicidal effect [2]: 80%
- ECHCG, visual assessment of the herbicidal effect [3]: 80%
- ALOMY, visual assessment of the herbicidal effect [4]: 80%
- ALOMY herbicidal effect (visual assessment, percentage scale) [5]: 95%
- AMARE herbicidal effect (visual assessment, percentage scale) [5]: 100%
- ECHCG herbicidal effect (visual assessment, percentage scale) [5]: 95%
- STEME herbicidal effect (visual assessment, percentage scale) [5]: 60%

Compound: Cn1nc(C(F)(F)F)c(C[S+]([O-])c2ncc(Cl)s2)c1OCC(F)(F)F (racemic) [1.014]
- STEME, visual assessment of the herbicidal effect [1]: 80%
- AMARE, visual assessment of the herbicidal effect [2]: 70%
- ECHCG, visual assessment of the herbicidal effect [3]: 60%
- ALOMY, visual assessment of the herbicidal effect [4]: 70%
- ALOMY herbicidal effect (visual assessment, percentage scale) [5]: 100%
- AMARE herbicidal effect (visual assessment, percentage scale) [5]: 100%
- ECHCG herbicidal effect (visual assessment, percentage scale) [5]: 95%
- STEME herbicidal effect (visual assessment, percentage scale) [5]: 95%

Compound: Cn1nc(C(F)(F)F)c(CSc2ncc(Br)s2)c1OCC(F)(F)F [Compound No. 1.001, 5-bromo-2-[1-methyl-5-(2,2,2-trifluoroethoxy)-3-trifluoromethyl-1H-pyrazol-4-ylmethylsulfanyl]-thiazole]
- STEME, visual assessment of the herbicidal effect [1]: 80%
- AMARE, visual assessment of the herbicidal effect [2]: 80%
- ECHCG, visual assessment of the herbicidal effect [3]: 60%
- ALOMY, visual assessment of the herbicidal effect [4]: 80%
- ALOMY herbicidal effect (visual assessment, percentage scale) [5]: 90%
- AMARE herbicidal effect (visual assessment, percentage scale) [5]: 90%
- ECHCG herbicidal effect (visual assessment, percentage scale) [5]: 95%
- STEME herbicidal effect (visual assessment, percentage scale) [5]: 60%

Compound: Cn1nc(C(F)(F)F)c(CSc2ncc(Br)s2)c1Cl [Compound No. 1.004, 5-bromo-2-(5-chloro-1-methyl-3-trifluoromethyl-1H-pyrazol-4-ylmethylsulfanyl)-thiazole]
- STEME, visual assessment of the herbicidal effect [1]: 60%
- AMARE, visual assessment of the herbicidal effect [2]: 70%
- ECHCG, visual assessment of the herbicidal effect [3]: 90%
- ALOMY, visual assessment of the herbicidal effect [4]: 80%
- ALOMY herbicidal effect (visual assessment, percentage scale) [5]: 95%
- AMARE herbicidal effect (visual assessment, percentage scale) [5]: 95%
- ECHCG herbicidal effect (visual assessment, percentage scale) [5]: 95%
- STEME herbicidal effect (visual assessment, percentage scale) [5]: 60%

Compound: Cn1nc(C(F)(F)F)c(C[S+]([O-])c2ncc(Cl)s2)c1OC(F)F (racemic) [1.057]
- STEME, visual assessment of the herbicidal effect [1]: 90%
- AMARE, visual assessment of the herbicidal effect [2]: 100%
- ECHCG, visual assessment of the herbicidal effect [3]: 80%
- ALOMY, visual assessment of the herbicidal effect [4]: 90%
- ALOMY herbicidal effect (visual assessment, percentage scale) [5]: 90%
- AMARE herbicidal effect (visual assessment, percentage scale) [5]: 95%
- ECHCG herbicidal effect (visual assessment, percentage scale) [5]: 95%
- STEME herbicidal effect (visual assessment, percentage scale) [5]: 80%

Compound: Cc1cnc([S+]([O-])Cc2c(C(F)(F)F)nn(C)c2OCC(F)(F)F)s1 (racemic) [Compound 1.074]
- AGSTE herbicidal effect (visual assessment, scale 0-5) [6]: 5
- AMARE herbicidal effect (visual assessment, scale 0-5) [6]: 3
- DIGSA herbicidal effect (visual assessment, scale 0-5) [6]: 5
- POATR herbicidal effect (visual assessment, scale 0-5) [6]: 5
- SETIT herbicidal effect (visual assessment, scale 0-5) [6]: 4
- ALOMY herbicidal effect (visual assessment, percentage scale) [5]: 70%
- AMARE herbicidal effect (visual assessment, percentage scale) [5]: 95%
- ECHCG herbicidal effect (visual assessment, percentage scale) [5]: 0%
- STEME herbicidal effect (visual assessment, percentage scale) [5]: 80%

Compound: Cn1nc(C(F)(F)F)c(CS(=O)(=O)c2ncc(Cl)s2)c1OC(F)F [1.058]
- STEME, visual assessment of the herbicidal effect [1]: 0%
- AMARE, visual assessment of the herbicidal effect [2]: 80%
- ECHCG, visual assessment of the herbicidal effect [3]: 70%
- ALOMY, visual assessment of the herbicidal effect [4]: 60%
- ALOMY herbicidal effect (visual assessment, percentage scale) [5]: 30%
- AMARE herbicidal effect (visual assessment, percentage scale) [5]: 100%
- ECHCG herbicidal effect (visual assessment, percentage scale) [5]: 95%
- STEME herbicidal effect (visual assessment, percentage scale) [5]: 10%

Compound: CCOc1c(CS(=O)(=O)c2ncc(Br)s2)c(C(F)(F)F)nn1C [1.023]
- STEME, visual assessment of the herbicidal effect [1]: 20%
- AMARE, visual assessment of the herbicidal effect [2]: 80%
- ECHCG, visual assessment of the herbicidal effect [3]: 80%
- ALOMY, visual assessment of the herbicidal effect [4]: 70%
- ALOMY herbicidal effect (visual assessment, percentage scale) [5]: 50%
- AMARE herbicidal effect (visual assessment, percentage scale) [5]: 100%
- ECHCG herbicidal effect (visual assessment, percentage scale) [5]: 90%
- STEME herbicidal effect (visual assessment, percentage scale) [5]: 30%

Compound: Cn1nc(C(F)(F)F)c(CS(=O)(=O)c2ncc(Br)s2)c1OCC(F)(F)F [Compound No. 1.003, 5-bromo-2-[1-methyl-5-(2,2,2-trifluoroethoxy)-3-trifluoromethyl-1H-pyrazol-4-ylmethanesulfonyl]-thiazole]
- STEME, visual assessment of the herbicidal effect [1]: 10%
- ECHCG, visual assessment of the herbicidal effect [3]: 90%
- ALOMY, visual assessment of the herbicidal effect [4]: 80%
- ALOMY herbicidal effect (visual assessment, percentage scale) [5]: 95%
- AMARE herbicidal effect (visual assessment, percentage scale) [5]: 95%
- ECHCG herbicidal effect (visual assessment, percentage scale) [5]: 95%
- STEME herbicidal effect (visual assessment, percentage scale) [5]: 70%

Compound: Cn1nc(OC(F)F)c(CS(=O)(=O)c2ncc(Cl)s2)c1C(F)(F)F [Compound 1.055]
- AGSTE herbicidal effect (visual assessment, scale 0-5) [6]: 4
- AMARE herbicidal effect (visual assessment, scale 0-5) [6]: 2
- DIGSA herbicidal effect (visual assessment, scale 0-5) [6]: 5
- POATR herbicidal effect (visual assessment, scale 0-5) [6]: 5
- SETIT herbicidal effect (visual assessment, scale 0-5) [6]: 5
- ALOMY herbicidal effect (visual assessment, percentage scale) [5]: 95%
- AMARE herbicidal effect (visual assessment, percentage scale) [5]: 0%
- ECHCG herbicidal effect (visual assessment, percentage scale) [5]: 100%
- STEME herbicidal effect (visual assessment, percentage scale) [5]: 0%

Compound: Cn1nc(C(F)(F)F)c(C[S+]([O-])c2ncc(Cl)s2)c1OCC(F)F (racemic) [Compound 1.116]
- AGSTE herbicidal effect (visual assessment, scale 0-5) [6]: 5
- AMARE herbicidal effect (visual assessment, scale 0-5) [6]: 5
- DIGSA herbicidal effect (visual assessment, scale 0-5) [6]: 5
- POATR herbicidal effect (visual assessment, scale 0-5) [6]: 5
- SETIT herbicidal effect (visual assessment, scale 0-5) [6]: 5

Compound: Cn1cc(C[S+]([O-])c2ncc(Cl)s2)c(C(F)(F)F)n1 (racemic) [Compound 1.106]
- AGSTE herbicidal effect (visual assessment, scale 0-5) [6]: 0
- AMARE herbicidal effect (visual assessment, scale 0-5) [6]: 2
- DIGSA herbicidal effect (visual assessment, scale 0-5) [6]: 4
- POATR herbicidal effect (visual assessment, scale 0-5) [6]: 5
- SETIT herbicidal effect (visual assessment, scale 0-5) [6]: 4
